{"source": "patent US6759409B2", "about": "“Inhibitors of papilloma virus” (Boehringer Ingelheim (Canada) Ltd., priority 2000, dated 2004)", "target": "T1, HPV-11 E1-E2-DNA origin of replication complex (Human papillomavirus 11, UniProt P04015)", "T1 construct": "approximately 100-200 ng of purified E1", "T1 sequence (P04015 whole entry, one chain of several)": "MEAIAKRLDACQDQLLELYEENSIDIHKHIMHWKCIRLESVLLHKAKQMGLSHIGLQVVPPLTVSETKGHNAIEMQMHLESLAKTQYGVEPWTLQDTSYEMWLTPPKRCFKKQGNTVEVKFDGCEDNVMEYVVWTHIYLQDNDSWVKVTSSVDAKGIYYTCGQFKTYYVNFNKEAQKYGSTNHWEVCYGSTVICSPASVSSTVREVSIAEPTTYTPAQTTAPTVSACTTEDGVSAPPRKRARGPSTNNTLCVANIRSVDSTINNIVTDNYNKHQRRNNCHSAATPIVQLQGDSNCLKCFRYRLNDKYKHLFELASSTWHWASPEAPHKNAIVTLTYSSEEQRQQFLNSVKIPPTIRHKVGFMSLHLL", "test": "E2-dependent E1 DNA binding assay (E1-E2 DNA assay)", "procedure": "This particular assay determines the ability of a test compound to inhibit the activity (IC50) of HPV-11 DNA replication. More specifically, in the assay described herein, the inhibitory activity of the test compound is evaluated based on its ability to interfere with the E1-E2-DNA origin of replication interaction, thereby inhibiting initiation of viral DNA replication.\nThis assay was modeled on a similar assay for SV40 T Antigen described by McKay (J. Mol. Biol., 1981,145:471). A 400 bp radiolabeled DNA probe, containing the HPV-11 origin of replication (Chiang et al., 1992, Proc. Natl. Acad. Sci. USA 89:5799) was produced by pcr, using plasmid pBluescript™ SK encoding the origin (nucleotides 7886-61 of the HPV-11 genome in unique BAMH1 site) as template and primers flanking the origin. Radiolabel was incorporated as [^33P]dCTP. Binding assay buffer consisted of: 20 mM Tris pH 7.6, 100 mM NaCl, 1 mM DTT, 1 mM EDTA.\nOther reagents used were protein A-SPA beads (type II, Amersham) and K72 rabbit polyclonal antiserum, raised against a peptide corresponding to the C-terminal 14 amino acids of HPV-11 E1. Following the protocol from Amersham, one bottle of beads was mixed with 25 mL of binding assay buffer. For the assay, a saturating amount of K72 antiserum was added to the beads and the mixture was incubated for 1 h, washed with one volume of binding assay buffer, and then resuspended in the same volume of fresh binding assay buffer. Binding reactions contained 8 ng of E2, approximately 100-200 ng of purified E1, and 0.4 ng of radiolabeled probe in a total of 80 μL of binding assay buffer. After 1 h at room temperature, 25 μL of K72 antibody-SPA bead suspension was added to with the binding reaction and mixed. After an additional hour of incubation at room temperature, the reactions were centrifuged briefly to pellet the beads and the extent of complex formation was determined by scintillation counting on a Packard TopCount™. Typically, the signal for reactions containing E1 and E2 was 20-30 fold higher than the background observed when either E1, E2, or both was omitted.", "key": {"[1]": {"conditions": "Table 1A, enantiomerically pure cis/cis isomer (form 1)"}, "[2]": {"conditions": "Table 1, racemic cis/cis isomer (form 1)"}}}
{"smiles": "Cc1ccc2c(c1)C(=O)C1(OC(c3ccc(Cl)c(Cl)c3)C(C(=O)Nc3ccc(-c4csnn4)cc3)C1C(=O)O)C2=O", "note": "(single isomer, unassigned) [A1007]", "values": [{"measurement": "IC50", "setting": "[1]", "value": "0.5 to 5", "unit": "µM"}]}
{"smiles": "Cc1ccc2c(c1)C(=O)C1(OC(c3ccc(Cl)c(Cl)c3)C(C(=O)Nc3ccc(-c4csnn4)cc3)C1C(=O)O)C2=O", "note": "(single isomer, unassigned) [A1008]", "values": [{"measurement": "IC50", "setting": "[1]", "value": "< 0.5", "unit": "µM"}]}
{"smiles": "CCCCNC(=O)C1C(c2ccc(Cl)c(Cl)c2)OC2(C(=O)c3ccccc3C2=O)C1C(=O)O", "note": "(stereo not shown) [compound 1050]", "values": [{"measurement": "IC50", "setting": "[2]", "value": "0.5 to 5", "unit": "µM"}]}
{"smiles": "CC(=O)c1ccc(NC(=O)C2C(c3ccc(Cl)c(Cl)c3)OC3(C(=O)c4cc5ccccc5cc4C3=O)C2C(=O)O)cc1", "note": "(stereo not shown) [compound 1090]", "values": [{"measurement": "IC50", "setting": "[2]", "value": "5 to 50", "unit": "µM"}]}
{"smiles": "CC(=O)c1ccc(NC(=O)C2C(c3ccc(Cl)c(Cl)c3)OC3(C(=O)c4ccc5ccccc5c4C3=O)C2C(=O)O)cc1", "note": "(stereo not shown) [compound 1091]", "values": [{"measurement": "IC50", "setting": "[2]", "value": "5 to 50", "unit": "µM"}]}
{"smiles": "CC(=O)c1ccc(NC(=O)C2C(c3ccc(Cl)c(Cl)c3)OC3(C(=O)c4ccc5ccccc5c4C3=O)C2C(=O)O)cc1", "note": "(stereo not shown) [compound 1095]", "values": [{"measurement": "IC50", "setting": "[2]", "value": "5 to 50", "unit": "µM"}]}
{"smiles": "CC(=O)c1ccc(NC(=O)C2C(/C=C/c3ccccc3)OC3(C(=O)c4ccccc4C3=O)C2C(=O)O)cc1", "note": "(stereo not shown) [compound 4005]", "values": [{"measurement": "IC50", "setting": "Table 4, racemic cis/cis isomer (form 1)", "value": "5 to 50", "unit": "µM"}]}
